Assay results: US11109593B2, “Isoxazolin-5-one derivative and herbicide containing same as active ingredient” (HOKKO CHEMICAL INDUSTRY CO., LTD., priority 2017, dated 2021)

What follows are compounds tested on broad leaf weeds (Lindernia pyxidaria and Monochoria vaginalis) (assay: Test Example 1: herbicidal effect test by treatment of rice paddy soil (immediately after seeding)). Details: Lindernia pyxidaria, 120 g/10a active ingredient, dry weight vs untreated area, 14 days after treatment.
Assay type: in vivo
Procedure, shortened: (§1)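 Applied at 120 g a.i./10 ares as diluted emulsion dropped into flooded (~3 cm) paddy soil pots right after sowing seeds 0–1 cm deep; greenhouse, two replicates. At day 14, dry weight of treated versus untreated plants gives % herbicidal rate.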

Row | SMILES | Herbicidal rate (%) Lindernia pyxidaria [%]
1 | CCC(C)Cn1oc(=O)c(Cc2ccccc2N(C(=O)OC)S(=O)(=O)C(F)(F)F)c1C (stereo not drawn) [Compound 1-583] | 90
2 | CCCC(C)n1oc(=O)c(Cc2ccccc2N(S(C)(=O)=O)S(=O)(=O)C(F)(F)F)c1C (stereo not drawn) [Compound 1-894] | 80
3 | CCC(C)n1oc(=O)c(Cc2ccccc2N(C(=O)c2ccccc2)S(=O)(=O)C(F)(F)F)c1C (stereo not drawn) [Compound 1-474] | 90

Same assay, conditions: Monochoria vaginalis, 120 g/10a active ingredient, dry weight vs untreated area, 14 days after treatment

Row | SMILES | Herbicidal rate (%) Monochoria vaginalis [%]
4 | CCC(C)Cn1oc(=O)c(Cc2ccccc2N(C(=O)OC)S(=O)(=O)C(F)(F)F)c1C (stereo not drawn) [Compound 1-583] | 90
5 | CCCC(C)n1oc(=O)c(Cc2ccccc2N(S(C)(=O)=O)S(=O)(=O)C(F)(F)F)c1C (stereo not drawn) [Compound 1-894] | 60
6 | CCC(C)n1oc(=O)c(Cc2ccccc2N(C(=O)c2ccccc2)S(=O)(=O)C(F)(F)F)c1C (stereo not drawn) [Compound 1-474] | 90

Each compound was assayed on Scirpus juncoides in the same assay as above. Details: 120 g/10a active ingredient, dry weight vs untreated area, 14 days after treatment.
Assay type: in vivo
Procedure, shortened: as §1

Row | SMILES | Herbicidal rate (%) Scirpus juncoides [%]
7 | CCC(C)Cn1oc(=O)c(Cc2ccccc2N(C(=O)OC)S(=O)(=O)C(F)(F)F)c1C (stereo not drawn) [Compound 1-583] | 90
8 | CCCC(C)n1oc(=O)c(Cc2ccccc2N(S(C)(=O)=O)S(=O)(=O)C(F)(F)F)c1C (stereo not drawn) [Compound 1-894] | 100
9 | CCC(C)n1oc(=O)c(Cc2ccccc2N(C(=O)c2ccccc2)S(=O)(=O)C(F)(F)F)c1C (stereo not drawn) [Compound 1-474] | 90

The compounds below were run on Echinochloa crus-galli in the same assay as above. Details: 120 g/10a active ingredient, dry weight vs untreated area, 14 days after treatment.
Assay type: in vivo
Procedure, shortened: as §1

Row | SMILES | Herbicidal rate (%) Echinochloa crus-galli [%]
10 | CCC(C)Cn1oc(=O)c(Cc2ccccc2N(C(=O)OC)S(=O)(=O)C(F)(F)F)c1C (stereo not drawn) [Compound 1-583] | 100
11 | CCCC(C)n1oc(=O)c(Cc2ccccc2N(S(C)(=O)=O)S(=O)(=O)C(F)(F)F)c1C (stereo not drawn) [Compound 1-894] | 100
12 | CCC(C)n1oc(=O)c(Cc2ccccc2N(C(=O)c2ccccc2)S(=O)(=O)C(F)(F)F)c1C (stereo not drawn) [Compound 1-474] | 90

These compounds were tested on southern crabgrass (assay: Test Example 3: herbicidal effect test by treatment of dry field farming soil (one day after seeding)). Details: 120 g/10a active ingredient, evaluated 14 days after treatment.
Assay type: in vivo
Procedure, shortened: (§2)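 Pre-emergence soil treatment: alluvial dry-field soil, 20 seeds per species mixed into top 1 cm, emulsion diluted in water sprayed one day after seeding at 100 L per 10 ares (120 g active ingredient per 10 ares). Duplicate pots; herbicidal rate (%) from dry weight vs untreated at 14 days.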

Row | SMILES | herbicidal rate, southern crabgrass [%]
13 | CCC(C)Cn1oc(=O)c(Cc2ccccc2N(C(=O)OC)S(=O)(=O)C(F)(F)F)c1C (stereo not drawn) [Compound 1-583] | 90
14 | CCCC(C)n1oc(=O)c(Cc2ccccc2N(S(C)(=O)=O)S(=O)(=O)C(F)(F)F)c1C (stereo not drawn) [Compound 1-894] | 90
15 | CCC(C)n1oc(=O)c(Cc2ccccc2N(C(=O)c2ccccc2)S(=O)(=O)C(F)(F)F)c1C (stereo not drawn) [Compound 1-474] | 90

These compounds were tested on Amaranthus viridis in the same assay as above. Details: 120 g/10a active ingredient, evaluated 14 days after treatment.
Assay type: in vivo
Procedure, shortened: as §2

Row | SMILES | herbicidal rate, Amaranthus viridis [%]
16 | CCC(C)Cn1oc(=O)c(Cc2ccccc2N(C(=O)OC)S(=O)(=O)C(F)(F)F)c1C (stereo not drawn) [Compound 1-583] | 60
17 | CCCC(C)n1oc(=O)c(Cc2ccccc2N(S(C)(=O)=O)S(=O)(=O)C(F)(F)F)c1C (stereo not drawn) [Compound 1-894] | 70
18 | CCC(C)n1oc(=O)c(Cc2ccccc2N(C(=O)c2ccccc2)S(=O)(=O)C(F)(F)F)c1C (stereo not drawn) [Compound 1-474] | 90

The compounds below were run on Chenopodium album in the same assay as above. Details: 120 g/10a active ingredient, evaluated 14 days after treatment.
Assay type: in vivo
Procedure, shortened: as §2

Row | SMILES | herbicidal rate, Chenopodium album [%]
19 | CCC(C)Cn1oc(=O)c(Cc2ccccc2N(C(=O)OC)S(=O)(=O)C(F)(F)F)c1C (stereo not drawn) [Compound 1-583] | 50
20 | CCCC(C)n1oc(=O)c(Cc2ccccc2N(S(C)(=O)=O)S(=O)(=O)C(F)(F)F)c1C (stereo not drawn) [Compound 1-894] | 60
21 | CCC(C)n1oc(=O)c(Cc2ccccc2N(C(=O)c2ccccc2)S(=O)(=O)C(F)(F)F)c1C (stereo not drawn) [Compound 1-474] | 90

The compounds below were run on Echinochloa crus-galli in the same assay as above. Details: 120 g/10a active ingredient, evaluated 14 days after treatment.
Assay type: in vivo
Procedure, shortened: as §2

Row | SMILES | herbicidal rate, Echinochloa crus-galli [%]
22 | CCC(C)Cn1oc(=O)c(Cc2ccccc2N(C(=O)OC)S(=O)(=O)C(F)(F)F)c1C (stereo not drawn) [Compound 1-583] | 100
23 | CCCC(C)n1oc(=O)c(Cc2ccccc2N(S(C)(=O)=O)S(=O)(=O)C(F)(F)F)c1C (stereo not drawn) [Compound 1-894] | 90
24 | CCC(C)n1oc(=O)c(Cc2ccccc2N(C(=O)c2ccccc2)S(=O)(=O)C(F)(F)F)c1C (stereo not drawn) [Compound 1-474] | 90

These compounds were tested on southern crabgrass (assay: Test Example 4: herbicidal effect test by treatment of leave and stem in dry field farming (seven days after seeding)). Details: 120 g/10a active ingredient; emulsion sprayed seven days after seeding; evaluated 14 days after treatment.
Assay type: in vivo
Procedure, shortened: (§3)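 Twenty seeds per species were mixed into the top 1 cm of alluvial soil in 36 cm^2 pots; emulsions were sprayed seven days after seeding at 100 L per 10 ares (120 g active ingredient per 10 ares). Herbicidal rate (%) = {1 − treated/untreated mean dry weight} × 100, 14 days after treatment, duplicate.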

Row | SMILES | herbicidal effect (herbicidal rate), southern crabgrass [%]
25 | CCC(C)Cn1oc(=O)c(Cc2ccccc2N(C(=O)OC)S(=O)(=O)C(F)(F)F)c1C (stereo not drawn) [Compound 1-583] | 60
26 | CCCC(C)n1oc(=O)c(Cc2ccccc2N(S(C)(=O)=O)S(=O)(=O)C(F)(F)F)c1C (stereo not drawn) [Compound 1-894] | 90
27 | CCC(C)n1oc(=O)c(Cc2ccccc2N(C(=O)c2ccccc2)S(=O)(=O)C(F)(F)F)c1C (stereo not drawn) [Compound 1-474] | 90

These compounds were tested on Amaranthus viridis in the same assay as above. Details: 120 g/10a active ingredient; emulsion sprayed seven days after seeding; evaluated 14 days after treatment.
Assay type: in vivo
Procedure, shortened: as §3

Row | SMILES | herbicidal effect (herbicidal rate), Amaranthus viridis [%]
28 | CCC(C)Cn1oc(=O)c(Cc2ccccc2N(C(=O)OC)S(=O)(=O)C(F)(F)F)c1C (stereo not drawn) [Compound 1-583] | 50
29 | CCCC(C)n1oc(=O)c(Cc2ccccc2N(S(C)(=O)=O)S(=O)(=O)C(F)(F)F)c1C (stereo not drawn) [Compound 1-894] | 60
30 | CCC(C)n1oc(=O)c(Cc2ccccc2N(C(=O)c2ccccc2)S(=O)(=O)C(F)(F)F)c1C (stereo not drawn) [Compound 1-474] | 40

Each compound was assayed on Chenopodium album in the same assay as above. Details: 120 g/10a active ingredient; emulsion sprayed seven days after seeding; evaluated 14 days after treatment.
Assay type: in vivo
Procedure, shortened: as §3

Row | SMILES | herbicidal effect (herbicidal rate), Chenopodium album [%]
31 | CCC(C)Cn1oc(=O)c(Cc2ccccc2N(C(=O)OC)S(=O)(=O)C(F)(F)F)c1C (stereo not drawn) [Compound 1-583] | 50
32 | CCCC(C)n1oc(=O)c(Cc2ccccc2N(S(C)(=O)=O)S(=O)(=O)C(F)(F)F)c1C (stereo not drawn) [Compound 1-894] | 60
33 | CCC(C)n1oc(=O)c(Cc2ccccc2N(C(=O)c2ccccc2)S(=O)(=O)C(F)(F)F)c1C (stereo not drawn) [Compound 1-474] | 40

The compounds below were run on Echinochloa crus-galli in the same assay as above. Details: 120 g/10a active ingredient; emulsion sprayed seven days after seeding; evaluated 14 days after treatment.
Assay type: in vivo
Procedure, shortened: as §3

Row | SMILES | herbicidal effect (herbicidal rate), Echinochloa crus-galli [%]
34 | CCC(C)Cn1oc(=O)c(Cc2ccccc2N(C(=O)OC)S(=O)(=O)C(F)(F)F)c1C (stereo not drawn) [Compound 1-583] | 80
35 | CCCC(C)n1oc(=O)c(Cc2ccccc2N(S(C)(=O)=O)S(=O)(=O)C(F)(F)F)c1C (stereo not drawn) [Compound 1-894] | 90
36 | CCC(C)n1oc(=O)c(Cc2ccccc2N(C(=O)c2ccccc2)S(=O)(=O)C(F)(F)F)c1C (stereo not drawn) [Compound 1-474] | 90

These compounds were tested on broad leaf weeds (Lindernia pyxidaria and Monochoria vaginalis) (assay: Test Example 2: herbicidal effect test by treatment during growing period in paddy rice cultivation (seven days after seeding)). Details: Lindernia pyxidaria, 120 g/10a active ingredient, assessed 14 days after treatment, dry weight vs untreated area.
Assay type: in vivo
Procedure, shortened: (§4)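 Paddy soil in Wagner pots with compound fertilizer, puddled; 30 seeds per species sown at 0–1 cm, flooded ~3 cm, greenhouse. Seven days after seeding, water-diluted emulsions were dropped into the water at 120 g active ingredient per 10 ares. Duplicate pots; herbicidal rate from dry weight versus untreated, 14 days after treatment.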

Row | SMILES | Herbicidal rate (%) Lindernia pyxidaria [%]
37 | CCC(C)Cn1oc(=O)c(Cc2ccccc2N(C(=O)OC)S(=O)(=O)C(F)(F)F)c1C (stereo not drawn) [Compound 1-583] | 80
38 | CCCC(C)n1oc(=O)c(Cc2ccccc2N(S(C)(=O)=O)S(=O)(=O)C(F)(F)F)c1C (stereo not drawn) [Compound 1-894] | 70
39 | CCC(C)n1oc(=O)c(Cc2ccccc2N(C(=O)c2ccccc2)S(=O)(=O)C(F)(F)F)c1C (stereo not drawn) [Compound 1-474] | 90

Same assay, conditions: Monochoria vaginalis, 120 g/10a active ingredient, assessed 14 days after treatment, dry weight vs untreated area

Row | SMILES | Herbicidal rate (%) Monochoria vaginalis [%]
40 | CCC(C)Cn1oc(=O)c(Cc2ccccc2N(C(=O)OC)S(=O)(=O)C(F)(F)F)c1C (stereo not drawn) [Compound 1-583] | 90
41 | CCCC(C)n1oc(=O)c(Cc2ccccc2N(S(C)(=O)=O)S(=O)(=O)C(F)(F)F)c1C (stereo not drawn) [Compound 1-894] | 70
42 | CCC(C)n1oc(=O)c(Cc2ccccc2N(C(=O)c2ccccc2)S(=O)(=O)C(F)(F)F)c1C (stereo not drawn) [Compound 1-474] | 90

The compounds below were run on Scirpus juncoides in the same assay as above. Details: 120 g/10a active ingredient, assessed 14 days after treatment, dry weight vs untreated area.
Assay type: in vivo
Procedure, shortened: as §4

Row | SMILES | Herbicidal rate (%) Scirpus juncoides [%]
43 | CCC(C)Cn1oc(=O)c(Cc2ccccc2N(C(=O)OC)S(=O)(=O)C(F)(F)F)c1C (stereo not drawn) [Compound 1-583] | 90
44 | CCCC(C)n1oc(=O)c(Cc2ccccc2N(S(C)(=O)=O)S(=O)(=O)C(F)(F)F)c1C (stereo not drawn) [Compound 1-894] | 80
45 | CCC(C)n1oc(=O)c(Cc2ccccc2N(C(=O)c2ccccc2)S(=O)(=O)C(F)(F)F)c1C (stereo not drawn) [Compound 1-474] | 90

The compounds below were run on Echinochloa crus-galli in the same assay as above. Details: 120 g/10a active ingredient, assessed 14 days after treatment, dry weight vs untreated area.
Assay type: in vivo
Procedure, shortened: as §4

Row | SMILES | Herbicidal rate (%) Echinochloa crus-galli [%]
46 | CCC(C)Cn1oc(=O)c(Cc2ccccc2N(C(=O)OC)S(=O)(=O)C(F)(F)F)c1C (stereo not drawn) [Compound 1-583] | 100
47 | CCCC(C)n1oc(=O)c(Cc2ccccc2N(S(C)(=O)=O)S(=O)(=O)C(F)(F)F)c1C (stereo not drawn) [Compound 1-894] | 90
48 | CCC(C)n1oc(=O)c(Cc2ccccc2N(C(=O)c2ccccc2)S(=O)(=O)C(F)(F)F)c1C (stereo not drawn) [Compound 1-474] | 90
